The results in this text go back to article PMC4193996 (Journal of Experimental & Clinical Cancer Research : CR, 2014).

A word on the GI50: it is the concentration that inhibits growth by half. Lower therefore signals more potent growth inhibition.

One experiment relates to BJ-EHLT fibroblasts. As to the kind of experiment: γ-H2AX/PCNA co-immunostaining (replication-dependent DNA damage). Format: cell-based, human. Particulars: 24 hrs. How it is done:
Cells were fixed in 2% formaldehyde and permeabilized in 0.25% Triton X100 in PBS for 5 min at room temperature. For immunolabeling, cells were incubated with primary antibody, then washed in PBS and incubated with the secondary antibodies. The following primary antibodies were used: pAb and mAb anti-TRF1(Abcam Ltd.; Cambridge UK); mAb (Upstate, Lake Placid, NY) and pAb anti-γH2AX (Abcam); mAb anti-PCNA (Sigma Chemicals, Milano, Italy). The following secondary antibody were used: TRITC conjugated Goat anti Rabbit, FITC conjugated Goat anti Mouse (Jackson ImmunoResearch Europe Ltd., Suffolk, UK). Fluorescence signals were recorded by using a Leica DMIRE2 microscope equipped with a Leica DFC 350FX camera and elaborated by a Leica FW4000 deconvolution software (Leica, Solms, Germany). This system permits to focus single planes inside the cell generating 3D highresolution images. For quantitative analysis of γH2AX positivity, 200 cells on triplicate slices were scored. For TIFs analysis, in each nucleus a single plane was analyzed and at least 50 nuclei per sample were scored.
Figure 2 DNA damage activation at telomeres. BJ-EHLT fibroblasts were treated for 24 hrs with compound 1 and the indicated ligands at the doses 0.1 (light-grey bars) and 0.5 μM (dark-grey bars). […] Cells with four or more γ-H2AX/TRF1 foci were scored as TIF positive. […]

In experiment [1] the test system is human colon cancer cell line HT-29. As to the kind of experiment: MTT proliferation assay, HT-29. In kind it is cell-based. The conditions noted are these: 96 hours. How it is done:
(§1) Normal WI-38 diploid human lung fibroblasts and the human colorectal adenocarcinoma HT29 cells were obtained from American Type Culture Collection (Manassas, VA, USA). BJ fibroblasts expressing hTERT and SV40 early region (BJ-EHLT) were obtained as previously reported. Cells were grown in Dulbecco Modified Eagle Medium (D-MEM, Invitrogen Carlsbad, CA, USA) supplemented with 10% fetal calf serum, 2 mM L-glutamin and antibiotics.
(§2) MTT (3-(4,5-Dimethylthiazol-2-yl)-2,5-diphenyltetrazolium Bromide) assay was performed in treated and untreated cells for 96 hours. Cells were incubated with MTT solution (Sigma-Aldrich), and the purple formazan crystals were dissolved in isopropanol. Optical densities (OD) at 540 nm was determined on microplate reader.
(§3) Firstly, we investigated if they were able to efficiently promote growth inhibition of tumor cells without affecting the survival of normal cells in vitro. In Table 1 we report for each compound the concentration causing 50% of growth inhibition (GI50) calculated by performing a proliferation assay in the human colon cancer cell line HT-29 or in the human ‘normal’ lung WI-38 cells. […] On the basis of results described so far, we decided to exclude from the further analysis ligand 10 for its high value of hERG inhibition (95%) (Table 1).
(In general: Formazan colour is commonly taken as a measure of viable cells.)

Experiment [2] has as its target human recombinant β2 adrenergic receptor (Homo sapiens, UniProt P07550). As to the kind of experiment: β2 adrenergic receptor inhibition assay. In kind it is binding. Particulars: read-out: β2 adrenergic % inh @1 μM. On the procedure:
(§4) hEGR study and the M2 and the β2 receptor inhibition assay were performed as previously reported.
(§5) The new G-quadruplex ligands were designed in an attempt to obtain molecules with improved toxicological and on-target profiles, but maintaining the same favorable chemical and pharmacological features of the lead compound 1. With the aim of selecting the best variants, a step by step comparative analysis of their off- and on-target properties was performed. Initially the new molecules were tested for their ability to interact with and inhibit the human recombinant β2 adrenergic and M2 muscarinic receptors, and to reduce the hERG tail current in a patch clamp assay. […] Therefore, we might expect that the new ligands would impair cardiac functionality to a lesser extent than the lead molecule does.

Experiment [3] concerns human 'normal' lung WI-38 cells. As to the kind of experiment: MTT proliferation assay, WI-38. Format: cell-based. On the procedure:
as §1, §2, §3

In experiment [4] the test system is alternating hairpin duplex sequence 5'-biotin-CGA3T3C(CT)2GA3T3CG. As to the kind of experiment: SPR binding to duplex DNA. How it is done: Oligonucleotides 5’-biotin-d [AG3 (T2AG3)3] quadruplex and 5’-biotin-CGA3T3C(CT)2GA3T3CG were purchased from Midland Certified Reagent Company (Midland, TX). Purification of DNA, preparation of solutions, collection of data, and analysis of results were conducted according to methods adopted in an earlier study.
This technique takes advantage of the refractive index change elicits by the binding of the drug with the h-Tel quadruplex DNA sequence 5’-d[AGGG(TTAGGG)3]-3’ or an alternating hairpin duplex sequence immobilized on a sensor chip surface.
(In SPR one partner is held on a chip, and binding of the other changes the refractive index at the surface.)

In experiment [5] the test system is hairpin duplex, 5'-biotin-CGA3T3C(CT)2GA3T3CG (DNA, hairpin) CGAAATTTCCTCTGAAATTTCG
Put plainly: SPR.

The target in experiment [6] is T1, human recombinant M2 muscarinic receptor (Homo sapiens, UniProt P08172).
T1 sequence (P08172 1-466): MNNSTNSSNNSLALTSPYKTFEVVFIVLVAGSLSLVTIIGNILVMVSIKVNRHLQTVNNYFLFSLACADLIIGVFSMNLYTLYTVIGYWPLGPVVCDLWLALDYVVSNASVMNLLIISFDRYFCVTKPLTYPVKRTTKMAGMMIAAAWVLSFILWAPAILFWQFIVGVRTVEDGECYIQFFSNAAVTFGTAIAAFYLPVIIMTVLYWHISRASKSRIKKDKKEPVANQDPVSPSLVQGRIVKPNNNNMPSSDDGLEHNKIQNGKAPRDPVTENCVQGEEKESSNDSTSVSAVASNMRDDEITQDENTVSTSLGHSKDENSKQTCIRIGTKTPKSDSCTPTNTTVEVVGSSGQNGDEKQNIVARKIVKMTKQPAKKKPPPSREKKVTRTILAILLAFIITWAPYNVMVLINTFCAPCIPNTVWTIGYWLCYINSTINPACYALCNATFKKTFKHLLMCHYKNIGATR
As to the kind of experiment: M2 muscarinic receptor inhibition assay. Format: binding. The conditions noted are these: read-out: Muscarinic (M2) % inh @1 μM. How it is done: as §4, §5

human recombinant β2 adrenergic receptor, sequence (P07550 whole entry): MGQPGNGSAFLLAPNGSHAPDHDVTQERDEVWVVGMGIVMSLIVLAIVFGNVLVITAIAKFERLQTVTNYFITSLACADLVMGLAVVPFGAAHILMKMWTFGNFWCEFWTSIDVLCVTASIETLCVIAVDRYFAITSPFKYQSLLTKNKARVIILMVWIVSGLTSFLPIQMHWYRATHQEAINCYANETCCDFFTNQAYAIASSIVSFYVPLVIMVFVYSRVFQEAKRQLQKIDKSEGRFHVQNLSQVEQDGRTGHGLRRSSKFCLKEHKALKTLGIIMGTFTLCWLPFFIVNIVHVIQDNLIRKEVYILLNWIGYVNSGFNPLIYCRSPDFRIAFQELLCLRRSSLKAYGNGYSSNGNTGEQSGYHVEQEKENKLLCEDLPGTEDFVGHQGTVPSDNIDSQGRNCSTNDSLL

As to `CC(=O)NCC#Cc1ccc2c3cccc4c3c([n+](C)c2c1)-c1ccccc1N4C` [Compound 8], the “γ-H2AX foci formation relative to PCNA status” value in the experiment with BJ-EHLT fibroblasts is recorded as “almost exclusively restricted to PCNA-positive”. Moreover, the GI50 is 750 nM in experiment [1] and 25.1 µM in experiment [3] (Homo sapiens, WI-38, MTT, 96 hours). Moreover, the inhibition at 1 µM in experiment [2] came to 2%; in experiment [6], 99%. In experiment [3] (GI50 WI-38 / GI50 HT-29), the “Ratio PMX WI38/HT29” value was 33,5. Further, the “Duplex DNA affinity K” value in experiment [4] is 0,9 x10^6 M^−1. Also, the K in experiment [5] stood at 900000 M⁻¹.
